One assay has as its system telomerase. The assay is described as follows: Telomerase activity in adult keratinocytes in monolayer culture (PCR-ELISA kit). Format: cell-based, human. The following applies: 100 ng/ml; 24 hours. As to the method: Protocol: Human keratinocytes were obtained from a donor. To perform the experiments, the keratinocytes were used at a low passage level (i.e., cell isolation passage number 2). The cells were grown as a monolayer until they reached about 75% of confluence before being used in the experiment. Reference product: FK228 at 100 ng/ml was used as a reference inducer of telomerase 1 activity. Incubation protocol: […] At the end of the incubation period, the telomerase was extracted from the cells and its activity was determined by means of a specific, sensitive kit. The principle of the telomerase kit is to measure the telomerase activity by coupling a PCR step (in which telomerase functions as regards its elongation activity) with an ELISA step for semi-quantitative determination of amounts of telomerase elongation product. The results are expressed in arbitrary units for the telomerase activity level (mean±S.D). The significance level between the “vehicle” and the “reference product” was evaluated by means of a Student's t test (*: p<0.05). The significance level between “control” and “test compound” was evaluated independently for each product by a one-way analysis of variance (one-way ANOVA) followed by a Holm-Sidak test (*: p<0.05).

The target in another assay is T1, phospholipase A2 (Homo sapiens, UniProt P39877).
T1 construct: purchased
T1 sequence (P39877 21-138): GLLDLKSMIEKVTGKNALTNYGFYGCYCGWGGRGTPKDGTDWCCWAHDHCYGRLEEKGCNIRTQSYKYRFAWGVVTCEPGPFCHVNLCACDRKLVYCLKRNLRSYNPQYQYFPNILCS
The assay is described as follows: sPLA2 (type V) Inhibitor Screening Assay Kit. The format is biochemical. The following applies: 1 mg in 100 μl. The text has this: The object of this study is to evaluate the modulation of the […] activity of the enzyme phospholipase A2 by one or more samples in an in vitro acellular model by means of the “SPLA2 (type V) Inhibitor Screening Assay Kit”. Phospholipase A2 is a key enzyme upstream of the inflammatory process which is triggered by the arachidonic cascade. A buffered solution of phospholipase A2 reacts with a specific substrate, diheptanoyl thio-PC, and transforms it into a compound which binds to a chromogen, DTNB, with agitation at room temperature. The phospholipase A2 activity may thus be evaluated by measuring the absorbance at 413 nm. […] The substrate transformed by the enzyme is stained by means of the chromogen DTNB by agitation at room temperature. […] The modulation of this activity is expressed as a percentage of inhibition or of activation of the phospholipase A2 activity in the absence of the active agent, i.e. only in the presence of the enzyme substrate (diheptanoyl thio-PC).
At the end of the incubation period, the activity of the enzyme phospholipase A2 with and without the test product or the reference product is evaluated by measuring the absorbance of the reaction media at 413 nm. For each concentration tested, the modulation of the phospholipase A2 enzymatic activity with the test product is calculated according to the following formula. […]

As to `C/C=C1\NC(=O)[C@H]2CSSCC/C=C/[C@H](CC(=O)N[C@H](C(C)C)C(=O)N2)OC(=O)[C@H](C(C)C)NC1=O` [FK228], the “increase of telomerase activity” value with telomerase is 28.0%.

Regarding `CCCCCCCCCCCCCCCCSC[C@H](COP(=O)(O)OCC[N+](C)(C)C)NC(=O)CCCCCCCCCCCCCCC` [thioetheramide-PC], the “inhibition of PLA2 activity” value on phospholipase A2 came to 93%.

(Values after patent US11717476B2, “Moringa peregrina seed extract rich in 2,5-diformylfuran, process for obtaining same and use thereof in cosmetic compositions” (priority 2020, dated 2023).)
